From US10758522B2, “Small molecule analogs of the nemo binding peptide” (THE SCRIPPS RESEARCH INSTITUTE, priority 2015, dated 2020)

Columns and labels:
NF-κB [1] = experiment: Firefly luciferase NF-κB reporter assay in TNF-α-stimulated HEK293 cells; type: cell-based; conditions: for inhibition of TNF-α-induced NF-κB activation (luciferase reporter), in words: 293 NF-κB luciferase reporter cells, 10 ng/ml TNF-α, compound 12909780 at 100 μM
Procedure: This model was used to screen a subset of the drug-like ZINC 8.0 database set (˜900,000 compounds) (Irwin et al., 2005). We were able to identify 161 hits that matched at least 6 features out of eight of the pharmacophore model. […] Two compounds termed NBDA-1 (Zinc-13) and NBDA-2 (Zinc-5), successfully passed these filters (See FIG. 4) and were purchased for biological testing. The compounds were then tested for ability to inhibit TNF-alpha-mediated induction of NF-κB activity in a 293 cells stably modified with a NF-κB luciferase reporter.
The activation of NF-κB was then quantitated by measuring the level of luciferase activity. […] Also, protein extracts were prepared from the same cells and the level of phospho-IkB determined, a marker of IKK activity.
To test if the small molecules identified by the in silico screen inhibit NF-κB activation, a HEK293 cell line stably expressing a luciferase reporter driven by a synthetic, NF-κB-dependent promoter was utilized. To induce NF-κB activation, cells were treated with 10 ng/ml of TNF-α and harvested three hours post-treatment for analysis of luciferase activity. […] To determine if compound 12909780 inhibited NF-κB in a dose dependent manner, concentrations were tested at 0, 6.25, 25, 50 and 100 μM.
HEK293 cells stably transfected with luciferase reporter plasmid driven by NF-κB were seeded in 96-well plate in triplicate and pretreated with DMSO or varying small molecules at indicated concentration for 30 min, followed by the stimulation of 10 ng/ml of TNFα for 3 hr. Cell were washed with PBS once and harvested in passive lysis buffer. Luciferase assay (Promega) was performed using a luminometer according to the manufacturer's instructions.

NF-κB [2] = experiment: EMSA of NF-κB DNA binding in skeletal muscle of mdx mice after acute treatment; type: in vivo, mouse; conditions: single ip injection at 10 mg/kg, 1 and 2 hours post-treatment
Procedure: We also tested the compounds for their ability to inhibit NF-κB activity acutely in a murine model of disease. For these experiments, a mouse model of Duchenne muscular dystrophy, which has elevated NF-κB activity in muscle, was treated with Zinc-13 (NBDA-1) and Zinc-5 (NBDA-2) and the level of NF-κB activity determined by gel shift analysis at 1 and 2 hours post-treatment.
(§1) To confirm that the NBD mimetics reduce IKK activity, the extent of phosphorylation of the IKK target, IκBα, in response to 10 ng/ml of TNF-α was determined by Western blot at 0, 5 and 10 min after TNF-α stimulation. […] To determine if the mimetics also reduce NF-κB DNA binding activity, electrophoretic mobility shift assay (EMSA) was conducted both in vivo and in vitro.
(§2) Cytoplasmic and nuclear fractions were extracted using the NE-PER nuclear and cytoplasmic extraction reagents (ThermoFisher) according to the manufacturer's instructions. The gel shift assay was performed by following the previously described method (41). In brief, 5 μg of nuclear extract was incubated with gel shift binding buffer and an α-^32P-deoxycytodine triphosphate-radiolabeled NF-κB probe for 20 min at room temperature (MP Biomedicals). The oligonucleotide sequences are as follows: NF-κB template, 5′-[…]-3′; NF-κB annealing, 5′-[…]-3′. The reaction product was separated on a 6% non-denaturing polyacrylamide gel.

[3] = Degradation in the presence of serum; type: in vitro ADME; conditions: data not shown
mdx mice = experiment: Chronic treatment of mdx mice (Duchenne muscular dystrophy model); type: in vivo, mouse; conditions: chronic treatment with the ZINC compounds
Description: Mdx mice develop normally at birth, and then undergo a massive myonecrosis starting at three weeks. Treatment of mdx mice with IKK/NF-kB inhibitors effectively reduces inflammation, block necrosis and increase muscle regeneration. Mdx mice were chronically treated with vehicle, SR12343, SR12460 or 8K-NBD starting from day 21, 3 times/week for 4 weeks. […] To determine if SR12343 and SR12460 improve muscle pathology, tibialis anterior (TA) muscle was stained with hematoxylin and eosin (H&E) to assess inflammatory infiltration, necrosis, central nucleation and fibrosis. […] Fiber size in centrally nucleated and non-centrally nucleated myofibers was also smaller in mice treated with SR12343 and 8K-NBD, indicating active reconstruction of myofiber during the regenerative phase.
To determine muscle strength post-treatment, grip strength test on forelimbs was performed 2 weeks and 4 weeks post-treatment.
HEK293 cells were grown in Dulbecco's Modification of Eagles Medium (with 4.5 g/L glucose and L-glutamine), supplemented with 10% fetal bovine serum, penicillin and streptomycin. Raw264.7 cells were cultured in RPMI-1640 media containing 10% heat-inactivated fetal bovine serum, penicillin and streptomycin. C57BL/10ScSn-Dmd^mdx/J and female C57BL/6 mice were purchased from the Jackson Laboratory. Mice were housed in the animal facilities of Scripps Fla. under constant temperature and humidity. Animal protocols used in this study were approved by Scripps Fla. Institutional Animal Care and Use Committees. Three week-old sex-matched mdx mice were dosed with SR12343 (30 mg/kg), […] (30 mg/kg), 8K-NBD peptide (10 mg/kg) or vehicle by intraperitoneal (i.p.) injection 3 times per week for 4 weeks. Mice were sacrificed at 7 weeks of age by carbon dioxide inhalation and tibialis anterior was collected for histological analysis.
Seven week-old treated or untreated mdx mice were measured for forelimb grip strength using a digital grip strength meter paired with a metal grid (Bioseb). Mice were allowed to grip the metal grid tightly and readings were obtained by gently pulling the tail backward until release. Five sequential measurements were performed and the average force was calculated.
Tissues fixed in 10% neutral buffered formalin (NBF) overnight were imbedded in paraffin. Tissue was sectioned at […] using a microtome. H&E staining was conducted following a standard protocol (REF).

NF-κB [4] = experiment: EMSA of NF-κB DNA binding in C2C12 cells; type: cell-based, mouse; conditions: 200 μM
Procedure: as §1, §2

HEK293 cells = experiment: MTT cell viability assay; type: cell-based
Procedure: To identify NBD mimetics with higher biological activity than compound 12909780 or the NBD peptide, we next screened the ZINC 10.0 database (approximately 3.5 million compounds) in silico for structurally similar compounds (24).
Cell viability was calculated by normalizing values to untreated control.

[5] = biological target: T1, IKK complex (IKKß, IKKα and NEMO) (Homo sapiens, UniProt Q9Y6K9); experiment: Co-immunoprecipitation of NEMO with IKKß in 293 cells; type: cell-based; conditions: Zinc-5 at 4 hours, Zinc-13 at 1 hour, NBD peptide at 4 hours
T1 construct: analyzed by Western blot for the level of co-precipitated NEMO; endogenous in cells; host or cells: 293 (HEK293) cells
Description: FIG. 8 is a bar graph showing the inhibition of TNFα by NBDA-1 (Zinc-13). […] In addition, we have examined the ability of the compounds to disrupt the IKK complex, comprised of IKKß, IKKα and NEMO.
A non-functional, related compound Zinc-7 had no effect.

p-IκBα = experiment: Western blot of IκBα phosphorylation after TNF-α; type: cell-based; conditions: 10 ng/ml TNF-α, 0, 5 and 10 min; 100 μM compound
Procedure: as §1
HEK293 cells grown in a 6-well plate at 1×10^6 cells/well were left untreated or treated with 100 μM of ZINC12909780 or ZINC3369392 for 30 min, followed by 10 ng/ml of TNFα for 0, 5 and 10 min. Cells were then harvested for western blot. Cell lysate was prepared in RIPA buffer (20 mM Tris-HCl (pH 7.5), 150 mM NaCl, 1 mM Na^2EDTA, 1 mM EGTA, 1% NP-40, 1% sodium deoxycholate, 2.5 mM sodium pyrophosphate, 1 mM beta-glycerophosphate, 1 mM Na3VO4, 1 μg/ml leupeptin, 1× protease inhibitor cocktails (sigma) and 1× Halt phosphatase inhibitor cocktail (Thermo)). 30 ug of protein was resolved by MINI-PROTEAN TGX 4-15% SDS-PAGE. Blots were blocked in 5% non-fat milk. Primary antibodies were incubated at 4° C. overnight and secondary antibodies were incubated at room temperature for 1 hour. Anti-p-IκBα (1:1000 CST) and anti-IκBα (1:2000 CST) were used to assess NF-κB activation. Anti-GAPDH (1:5000 CST) was used as a loading control.

T1 sequence (Q9Y6K9 whole entry, one chain of several): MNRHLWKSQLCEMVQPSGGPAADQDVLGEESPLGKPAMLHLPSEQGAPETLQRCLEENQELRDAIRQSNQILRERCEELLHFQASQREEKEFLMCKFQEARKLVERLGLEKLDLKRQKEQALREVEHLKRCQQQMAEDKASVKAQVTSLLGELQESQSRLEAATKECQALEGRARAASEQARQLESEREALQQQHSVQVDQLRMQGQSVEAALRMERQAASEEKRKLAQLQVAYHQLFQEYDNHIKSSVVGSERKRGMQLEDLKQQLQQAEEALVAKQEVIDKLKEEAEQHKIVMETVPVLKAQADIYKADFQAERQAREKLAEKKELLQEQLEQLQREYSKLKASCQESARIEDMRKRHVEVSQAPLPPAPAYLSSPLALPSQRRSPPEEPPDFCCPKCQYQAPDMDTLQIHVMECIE

O=C(COC(=O)Cc1ccccc1F)Nc1ccc(Cl)cn1 [ZINC5, 2-(2-fluorophenyl)acetic-acid-[2-[(5-chloro-2-pyridyl)amino]-2-keto-ethyl]-ester]
dose-dependent inhibition of TNF-α-induced NF-κB activation, in words (NF-κB [1]; 0, 6.25, 25, 50 and 100 μM): greater extent of inhibitory effect compared to compound 12909780 | inhibition of TNF-α-induced NF-κB activation (luciferase reporter), in words (NF-κB [1]; listed as Zinc5): lowered NF-κB activity robustly | inhibition of TNF-α-induced NF-κB activation (luciferase reporter), in words (NF-κB [1]; listed as Zinc-5): able to inhibit TNF-alpha mediated activation of NF-κB, as or more efficiently as the NBD peptide | NF-κB DNA binding activity in quadriceps of mdx mice (NF-κB [2]; 10 mg/kg): inhibited NF-κB DNA binding activity in quadriceps | NF-κB DNA binding activity in quadriceps of mdx mice (NF-κB [2]; listed as Zinc-5, 10 mg/kg): reduced NF-κB DNA binding activity in the skeletal muscle (quadricep) | degradation in the presence of serum [3]: rapid degradation in the presence of serum | therapeutic benefit of chronic treatment of mdx mice (mdx mice): showed no therapeutic benefit | TNFα-induced NF-κB DNA binding activity (EMSA) (NF-κB [4]): significantly decreased TNFα-induced NF-κB DNA binding activity | cell death / toxicity (MTT assay) (HEK293 cells; HEK293, 24 hours): less than 10% | cell toxicity, in words (HEK293 cells; at 50 and 100 μM): no cell toxicity observed | level of NEMO co-immunoprecipitated with IKKß [5]: reduced the level of co-immunoprecipitated NEMO | level of phospho-IκBα / phosphorylation of IkB (p-IκBα): reduced the level of p-IκBα dramatically
